In patent publication US8889876B2, “Histone deacetylase inhibitors and uses thereof” (Jiangsu Hengyi Pharmaceutical Co., Ltd., priority 2008, dated 2014):
≈ marks a conversion by molar mass, not a printed value.

Key:
[1] = tested on: Jurkat E6-1 human T-cell lymphoma; assay: CCK-8 proliferation inhibition, Jurkat E6-1; assay type: cell-based; settings: Homo sapiens; for inhibition at 10 µM: Jurkat E6.1, 10 μM; for inhibition at 100 µM: Jurkat E6.1, 100 μM
Procedure, shortened: (§1)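 Single-point screen at 100 μM and 10 μM test compound, with growth inhibition determined via the CCK-8 method.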

[2] = tested on: MDA-MB-435s human breast cancer cells; assay: CCK-8 proliferation inhibition, MDA-MB-435s; assay type: cell-based; settings: Homo sapiens, MDA-MB-435S, CCK-8 method; for inhibition at 10 µM: compound concentration 10 μM; for inhibition at 100 µM: compound concentration 100 μM
Procedure, shortened: as §1

[3] = tested on: Hut 78 (T-cell Leukemia cell); assay: MTT cytotoxicity to tumor cell strains, Hut 78; assay type: cell-based; settings: Homo sapiens, HuT78; Hut 78, MTT; read-out: Cell activity (IC50, μg/ml) Hut 78
Experimental: (§2) The cytotoxicity of samples to tumor cell strains is determined through MTT.

[4] = tested on: Hep3B2.1-7 human liver cancer cells; assay: CCK-8 proliferation inhibition, Hep3B2.1-7; assay type: cell-based; settings: Homo sapiens, Hep3B, CCK-8 method; for inhibition at 10 µM: compound concentration 10 μM; for inhibition at 100 µM: compound concentration 100 μM
Procedure, shortened: as §1

[5] = tested on: K562 human chronic myeloid leukemia cells; assay: CCK-8 proliferation inhibition, K562; assay type: cell-based; settings: Homo sapiens; for inhibition at 10 µM: K562, 10 μM; for inhibition at 100 µM: K562, 100 μM
Procedure, shortened: as §1

[6] = tested on: PC-3 human prostate cancer; assay: CCK-8 proliferation inhibition, PC-3; assay type: cell-based; settings: Homo sapiens, CCK-8 method; for inhibition at 10 µM: compound concentration 10 μM; for inhibition at 100 µM: compound concentration 100 μM
Procedure, shortened: as §1

[7] = tested on: A549 (human lung adenocarcinoma cells); assay: MTT cytotoxicity to tumor cell strains, A549; assay type: cell-based; settings: Homo sapiens, read-out: Cell activity (IC50, μg/ml) A549
Experimental: as §2

[8] = tested on: K562: human chronic myeloid leukemia cell strain; assay: MTT cytotoxicity to tumor cell strains, K562; assay type: cell-based; settings: Homo sapiens, read-out: Cell activity (IC50, μg/ml) K562
Experimental: as §2

[9] = tested on: A549 human lung cancer cells; assay: CCK-8 proliferation inhibition, A549; assay type: cell-based; settings: Homo sapiens, A549, CCK-8 method; for inhibition at 10 µM: compound concentration 10 μM; for inhibition at 100 µM: compound concentration 100 μM
Procedure, shortened: as §1

[10] = tested on: PANC-1 human pancreatic cancer cells; assay: CCK-8 proliferation inhibition, PANC-1; assay type: cell-based; settings: Homo sapiens; for inhibition at 10 µM: PANC-1, 10 μM; for inhibition at 100 µM: PANC-1, 100 μM
Procedure, shortened: as §1

[11] = tested on: histone deacetylase; assay: in vitro inhibition activity on histone deacetylase (rat liver homogenate, MAL fluorescent substrate); assay type: biochemical, rats; settings: n = 4, 37° C., 16 hours
Experimental: A 96-well plate (black) for determining […] is made by Costar Company of U.S. The histone deacetylase is obtained by homogenization of liver of rats. The histone deacetylase reacts with small molecular fluorescent substrate MAL such that the substrate MAL is deacetylated to become ML.
The compound to be detected is dissolved with 200 μL of DMSO. The stock solution of the compound to be detected is diluted with PBS to a concentration of the working solution. The histone deacetylase, the MAL fluorescent substrate and the compound to be detected are mixed in a water bath at 37° C. and reacted 16 hours. The final concentration of the compound to be detected is: MS275 and its similar compound: 10, 100 μmol/.
The reaction solution is extracted with ethyl acetate. The extract is pumped in vacuum and thereto added 110 μL of methanol (40%). Taking 50 μL/well to a 96-well plate and making a fluorescent detection at 325/390 nm.
The negative control wherein histone deacetylase is not added to the reaction is 100% inhibition. The control that only contains histone deacetylase without any inhibitor is the background (0% inhibition). The inhibition rate of the sample to be detected=(the detected fluorescent value−the background)/(the fluorescent value of the negative control−background)×100%
The inhibition rate and the standard deviation in the results are the average inhibition percentage and the standard deviation of each parallel well in each dosage group.

[12] = tested on: Colo320 human rectal cancer cells; assay: CCK-8 proliferation inhibition, Colo320; assay type: cell-based; settings: Homo sapiens, COLO 320, CCK-8 method; for inhibition at 10 µM: compound concentration 10 μM; for inhibition at 100 µM: compound concentration 100 μM
Procedure, shortened: as §1

[13] = tested on: Hut78 T-cell Leukemia cell; assay: CCK-8 proliferation inhibition, Hut78; assay type: cell-based; settings: Homo sapiens, read-out: Hut-78 (inhibition %); for inhibition at 10 µM: HuT78, 10 μM; for inhibition at 100 µM: HuT78, 100 μM
Procedure, shortened: as §1

[14] = tested on: histone deacetylase; assay: in vitro inhibition of histone deacetylase by HDAC inhibitor screening kit (Biovision K340-100); assay type: biochemical
Experimental: An assay for determining the in vitro inhibition activity of the compound on histone deacetylase is conducted according to the specification of HDAC inhibitor screeing kid (Biovision Company/Catalog #K340-100). […]

SMILES | inhibition at 10 µM [1] | inhibition at 100 µM [1] | inhibition at 10 µM [2] | inhibition at 100 µM [2] | IC50 [3] | inhibition at 10 µM [4] | inhibition at 100 µM [4] | inhibition at 10 µM [5] | inhibition at 100 µM [5] | inhibition at 10 µM [6] | inhibition at 100 µM [6] | IC50 [7] | IC50 [8] | inhibition at 10 µM [9] | inhibition at 100 µM [9] | inhibition at 10 µM [10] | inhibition at 100 µM [10] | inhibition rate % average number ([11]; dosage 10 μmol/L) | inhibition rate % average number ([11]; dosage 100 μmol/L) | inhibition at 10 µM [12] | further results
Nc1ncccc1NC(=O)c1ccc(CNC(=O)OCc2cccnc2)cc1 [V-4, N-(2-amino-3-pyridyl)-4-[(3-pyridylmethoxyacyl)aminomethyl]benzamide] | 48.5% | 79.3% | 26.7% | 87.5% | 4.21 µg/mL (≈ 11.2 µM) | 2.6% | 37.4% | 22.4% | 30.8% | 79.5% | 91.5% | > 100 µg/mL | > 100 µg/mL | 50.6% | 89.7% | 40.2% | 65.4% | 1.644% | 12.033% | 33.2% | inhibition at 100 µM [12]: 78.3%; inhibition at 10 µM [13]: 36%; inhibition at 100 µM [13]: 67.2%; Inhibition rate(%) ([14]; 3.91 μM): 9.4%; Inhibition rate(%) ([14]; 62.5 μM): 19.8%; Inhibition rate(%) ([14]; 2 mM): 65.2%
Nc1cnccc1NC(=O)c1ccc(CNC(=O)OCc2cccnc2)cc1 [V-5] | 58.5% | 85.9% | 35.8% | 86.9% | 0.4 µg/mL (≈ 1.06 µM) | 31.2% | 53.6% | 21% | 64.4% | 90.3% | 92.4% | > 100 µg/mL | > 100 µg/mL | 65.6% | 84.8% | 20.7% | 74.1% | 9.422% | 37.240% | 39.6% | inhibition at 100 µM [12]: 92.9%; inhibition at 10 µM [13]: 43.4%; inhibition at 100 µM [13]: 72.8%; Inhibition rate(%) ([14]; 3.91 μM): 7.6%; Inhibition rate(%) ([14]; 62.5 μM): 28.0%; Inhibition rate(%) ([14]; 2 mM): 77.1%
